Source: US20250136606A1, “MODULATORS OF TRPML, THEIR COMPOSITIONS AND METHODS OF USE” (Caraway Therapeutics, Inc., priority 2021, published 2025)

Experiments:
Type in all cases: cell-based
[1] = target: TRPML1 (Homo sapiens, UniProt Q9GZU1); assay: Fluorescent TRPML1 assay (Fluo4-AM calcium fluorescence in doxycycline-induced HEK-293 Trex cells)
Procedure, shortened: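 HEK-293 Trex cells stably expressing surface-directed mutant human TRPML1, induced with 0.5 µg/mL doxycycline overnight, were loaded with 1 µM Fluo4-AM and added to compound (6 nM–20 µM final, half-log steps, triplicate) in Ringer's with 10 mM calcium. Fluorescence ex 480/em 540; EC50 by non-linear regression versus plate controls.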

[2] = target: T1, TRPML3 (Homo sapiens, UniProt Q8TDD5); assay: Fluorescent TRPML3 assay (performed as for TRPML1, substituting the TRPML3 subtype)
T1 construct: expressed in transfected cells
T1 sequence (Q8TDD5 1-553): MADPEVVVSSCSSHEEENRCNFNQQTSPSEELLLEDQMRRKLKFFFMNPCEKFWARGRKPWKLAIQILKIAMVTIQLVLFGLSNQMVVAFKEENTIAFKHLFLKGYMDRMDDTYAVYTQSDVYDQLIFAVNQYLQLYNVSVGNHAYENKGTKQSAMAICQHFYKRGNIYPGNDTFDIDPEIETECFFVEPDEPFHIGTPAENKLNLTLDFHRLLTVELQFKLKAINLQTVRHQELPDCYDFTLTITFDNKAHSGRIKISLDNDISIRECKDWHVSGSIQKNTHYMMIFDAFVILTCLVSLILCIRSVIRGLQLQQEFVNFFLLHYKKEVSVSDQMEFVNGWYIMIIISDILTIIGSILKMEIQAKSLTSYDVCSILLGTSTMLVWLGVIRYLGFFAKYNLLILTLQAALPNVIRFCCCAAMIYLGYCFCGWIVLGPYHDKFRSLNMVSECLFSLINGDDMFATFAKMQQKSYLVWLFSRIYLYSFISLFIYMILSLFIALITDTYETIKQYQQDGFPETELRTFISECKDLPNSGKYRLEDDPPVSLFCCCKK
Procedure, shortened: (§1)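 Agonist activity is scored as percent of plate controls from Fluo4 fluorescence after dye-loaded, doxycycline-induced HEK-293 Trex cells meet compound in high-calcium (10 mM) Ringer's. Compounds run in half-log dilutions from 20 micromolar final, in triplicate.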

[3] = target: T2, TRPML2 (Homo sapiens, UniProt Q8IZK6); assay: Fluorescent TRPML2 assay (performed as for TRPML1, substituting the TRPML2 subtype)
T2 construct: expressed in transfected cells
T2 sequence (Q8IZK6 1-566): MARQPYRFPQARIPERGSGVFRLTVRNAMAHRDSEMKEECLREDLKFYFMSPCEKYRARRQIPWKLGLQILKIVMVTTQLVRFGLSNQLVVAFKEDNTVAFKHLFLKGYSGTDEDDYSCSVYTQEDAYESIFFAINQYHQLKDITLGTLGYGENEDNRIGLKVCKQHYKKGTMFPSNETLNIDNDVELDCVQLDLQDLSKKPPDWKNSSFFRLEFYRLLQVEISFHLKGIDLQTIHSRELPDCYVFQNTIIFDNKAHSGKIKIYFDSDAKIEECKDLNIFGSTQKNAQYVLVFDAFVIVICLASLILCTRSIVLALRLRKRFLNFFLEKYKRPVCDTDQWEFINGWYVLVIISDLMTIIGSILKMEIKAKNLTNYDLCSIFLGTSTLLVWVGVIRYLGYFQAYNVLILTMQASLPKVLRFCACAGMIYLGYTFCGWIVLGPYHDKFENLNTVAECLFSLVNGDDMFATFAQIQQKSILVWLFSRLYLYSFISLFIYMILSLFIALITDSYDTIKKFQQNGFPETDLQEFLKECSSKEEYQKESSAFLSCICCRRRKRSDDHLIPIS
Procedure, shortened: as §1

TRPML1, sequence (Q9GZU1 whole entry L15A/L16A/L577A/L578A, form open): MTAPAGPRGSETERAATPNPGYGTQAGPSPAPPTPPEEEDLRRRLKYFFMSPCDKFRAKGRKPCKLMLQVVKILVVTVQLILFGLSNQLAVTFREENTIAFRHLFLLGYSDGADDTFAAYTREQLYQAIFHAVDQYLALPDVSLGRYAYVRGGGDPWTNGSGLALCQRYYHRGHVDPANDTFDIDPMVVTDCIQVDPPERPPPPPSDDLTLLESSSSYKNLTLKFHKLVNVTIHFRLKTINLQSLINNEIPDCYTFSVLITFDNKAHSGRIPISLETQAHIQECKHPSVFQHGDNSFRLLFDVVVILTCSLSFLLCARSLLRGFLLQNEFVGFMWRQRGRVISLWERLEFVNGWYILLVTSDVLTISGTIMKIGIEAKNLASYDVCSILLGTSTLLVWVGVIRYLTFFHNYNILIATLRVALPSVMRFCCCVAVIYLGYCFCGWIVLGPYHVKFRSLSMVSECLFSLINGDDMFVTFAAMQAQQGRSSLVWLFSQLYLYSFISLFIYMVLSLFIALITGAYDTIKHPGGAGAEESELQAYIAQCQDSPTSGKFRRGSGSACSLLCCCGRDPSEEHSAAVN

| Structure (SMILES) | EC50 [1] [nM] | EC50 [2] [nM] | EC50 [3] [nM] |
| --- | --- | --- | --- |
| C[C@@H]1CN(c2ncnc3c2c(C2CCC2)cn3-c2cc(F)cc(F)c2)[C@@H](C)CN1C(=O)OC(C)(C)C [Compound 648, tert-butyl (2R,5S)-4-(5-cyclobutyl-7-(3,5-difluorophenyl)-7H-pyrrolo[2,3-d]pyrimidin-4-yl)-2,5-dimethylpiperazine-1-carboxylate] | 500 to 2000 | 100 to 500 | 500 to 2000 |
| C[C@@H]1CN(c2ncnc3c2c(-c2ccccc2F)cn3-c2cc(C(F)(F)F)ccn2)[C@@H](C)CN1C(=O)OC(C)(C)C [Compound 649, tert-butyl (2R,5S)-4-(5-(2-fluorophenyl)-7-(4-(trifluoromethyl)pyridin-2-yl)-7H-pyrrolo[2,3-d]pyrimidin-4-yl)-2,5-dimethylpiperazine-1-carboxylate] | < 100 | < 100 | < 100 |
| C[C@@H]1CN(c2ncnc3c2c(-c2ccccc2F)cn3-c2cncc(C#N)c2)[C@@H](C)CN1C(=O)OC(C)(C)C [Compound 650, tert-butyl (2R,5S)-4-(7-(5-cyanopyridin-3-yl)-5-(2-fluorophenyl)-7H-pyrrolo[2,3-d]pyrimidin-4-yl)-2,5-dimethylpiperazine-1-carboxylate] | < 100 | < 100 | < 100 |
| C[C@H]1CN(C(=O)OC(C)(C)C)CCN1c1ncnc2c1c(-c1ccccc1F)cn2-c1cc(C(F)(F)F)ccn1 [Compound 651, tert-butyl (S)-4-(5-(2-fluorophenyl)-7-(4-(trifluoromethyl)pyridin-2-yl)-7H-pyrrolo[2,3-d]pyrimidin-4-yl)-3-methylpiperazine-1-carboxylate] | < 100 | < 100 | < 100 |
| C[C@@H]1CN(c2ncnc3c2c(-c2ccccc2F)cn3-c2cc(C(F)(F)F)ccn2)[C@@H](C)CN1C(=O)OC1(C)CC1 [Compound 652, 1-methylcyclopropyl (2R,5S)-4-(5-(2-fluorophenyl)-7-(4-(trifluoromethyl)pyridin-2-yl)-7H-pyrrolo[2,3-d]pyrimidin-4-yl)-2,5-dimethylpiperazine-1-carboxylate] | < 100 | < 100 | 100 to 500 |
| C[C@@H]1CN(c2ncnc3c2c(-c2ccccc2F)cn3-c2cc(F)ccn2)[C@@H](C)CN1C(=O)OC1(C)CC1 [Compound 653, 1-methylcyclopropyl (2R,5S)-4-(5-(2-fluorophenyl)-7-(4-fluoropyridin-2-yl)-7H-pyrrolo[2,3-d]pyrimidin-4-yl)-2,5-dimethylpiperazine-1-carboxylate] | < 100 | < 100 | < 100 |
| C[C@@H]1CN(c2ncnc3c2c(C2CC2)cn3-c2cccc(Cl)c2)[C@@H](C)CN1C(=O)OC1(C)CC1 [Compound 654, 1-methylcyclopropyl (2R,5S)-4-(7-(3-chlorophenyl)-5-cyclopropyl-7H-pyrrolo[2,3-d]pyrimidin-4-yl)-2,5-dimethylpiperazine-1-carboxylate] | 100 to 500 | < 100 | > 2000 |
| C[C@@H]1CN(c2ncnc3c2c(C2CC2)cn3-c2cc(F)cc(F)c2)[C@@H](C)CN1C(=O)OC1(C)CC1 [Compound 655, 1-methylcyclopropyl (2R,5S)-4-(5-cyclopropyl-7-(3,5-difluorophenyl)-7H-pyrrolo[2,3-d]pyrimidin-4-yl)-2,5-dimethylpiperazine-1-carboxylate] | < 100 | 100 to 500 | < 100 |
| C[C@@H]1CN(c2ncnc3c2c(C2CC2)cn3-c2cccc(F)c2)CCN1C(=O)OC(C)(C)C [Compound 656, tert-butyl (R)-4-(5-cyclopropyl-7-(3-fluorophenyl)-7H-pyrrolo[2,3-d]pyrimidin-4-yl)-2-methylpiperazine-1-carboxylate] | < 100 | < 100 | 100 to 500 |
| C[C@@H]1CN(c2ncnc3c2c(C2CC2)cn3-c2cccc(F)c2)[C@@H](C)CN1C(=O)OC(C)(C)C [Compound 657, tert-butyl (2R,5S)-4-(5-cyclopropyl-7-(3-fluorophenyl)-7H-pyrrolo[2,3-d]pyrimidin-4-yl)-2,5-dimethylpiperazine-1-carboxylate] | < 100 | < 100 | < 100 |
| C[C@@H]1CN(c2ncnc3c2c(C2CC2)cn3-c2cccc(F)c2)[C@@H](C)CN1C(=O)OC1(C)CC1 [Compound 658, 1-methylcyclopropyl (2R,5S)-4-(5-cyclopropyl-7-(3-fluorophenyl)-7H-pyrrolo[2,3-d]pyrimidin-4-yl)-2,5-dimethylpiperazine-1-carboxylate] | < 100 | 100 to 500 | 500 to 2000 |
| C[C@@H]1CN(c2ncnc3c2c(C(F)(F)F)cn3-c2cc(F)ccn2)[C@@H](C)CN1C(=O)OC1(C)CC1 [Compound 659, 1-methylcyclopropyl (2R,5S)-4-(7-(4-fluoropyridin-2-yl)-5-(trifluoromethyl)-7H-pyrrolo[2,3-d]pyrimidin-4-yl)-2,5-dimethylpiperazine-1-carboxylate] | < 100 | 100 to 500 | > 2000 |
| C[C@H]1CN(C(=O)OC2(C)CC2)CCN1c1ncnc2c1c(C(F)(F)F)cn2-c1cccc(Cl)c1 [Compound 660, 1-methylcyclopropyl (S)-4-(7-(3-chlorophenyl)-5-(trifluoromethyl)-7H-pyrrolo[2,3-d]pyrimidin-4-yl)-3-methylpiperazine-1-carboxylate] | 100 to 500 | 100 to 500 | 500 to 2000 |
| C[C@@H]1CN(c2ncnc3c2c(C(F)(F)F)cn3-c2cc(F)cc(F)c2)[C@@H](C)CN1C(=O)OC1(C)CC1 [Compound 661, 1-methylcyclopropyl (2R,5S)-4-(7-(3,5-difluorophenyl)-5-(trifluoromethyl)-7H-pyrrolo[2,3-d]pyrimidin-4-yl)-2,5-dimethylpiperazine-1-carboxylate] | 100 to 500 | 100 to 500 | 500 to 2000 |
| C[C@@H]1CN(c2ncnc3c2c(C(F)(F)F)cn3-c2cncc(C#N)c2)[C@@H](C)CN1C(=O)OC(C)(C)C [Compound 662, tert-butyl (2R,5S)-4-(7-(5-cyanopyridin-3-yl)-5-(trifluoromethyl)-7H-pyrrolo[2,3-d]pyrimidin-4-yl)-2,5-dimethylpiperazine-1-carboxylate] | < 100 | < 100 | 100 to 500 |
| C[C@@H]1CN(c2ncnc3c2c(C(F)(F)F)cn3-c2ccccn2)[C@@H](C)CN1C(=O)OC(C)(C)C [Compound 663, tert-butyl (2R,5S)-2,5-dimethyl-4-(7-(pyridin-2-yl)-5-(trifluoromethyl)-7H-pyrrolo[2,3-d]pyrimidin-4-yl)piperazine-1-carboxylate] | 100 to 500 | 100 to 500 | > 2000 |
| COc1ccnc(-n2cc(C(F)(F)F)c3c(N4C[C@@H](C)N(C(=O)OC(C)(C)C)C[C@@H]4C)ncnc32)c1 [Compound 664, tert-butyl (2R,5S)-4-(7-(4-methoxypyridin-2-yl)-5-(trifluoromethyl)-7H-pyrrolo[2,3-d]pyrimidin-4-yl)-2,5-dimethylpiperazine-1-carboxylate] | < 100 | < 100 | 500 to 2000 |
| Cc1ccnc(-n2cc(C(F)(F)F)c3c(N4C[C@@H](C)N(C(=O)OC(C)(C)C)C[C@@H]4C)ncnc32)c1 [Compound 665, tert-butyl (2R,5S)-2,5-dimethyl-4-(7-(4-methylpyridin-2-yl)-5-(trifluoromethyl)-7H-pyrrolo[2,3-d]pyrimidin-4-yl)piperazine-1-carboxylate] | < 100 | < 100 | 500 to 2000 |
| Cc1cn(-c2cccc(F)c2)c2ncnc(N3C[C@@H](C)N(C(=O)OC(C)(C)C)C[C@@H]3C)c12 [Compound 666, tert-butyl (2R,5S)-4-(7-(3-fluorophenyl)-5-methyl-7H-pyrrolo[2,3-d]pyrimidin-4-yl)-2,5-dimethylpiperazine-1-carboxylate] | < 100 | 100 to 500 | 100 to 500 |
